Experimental data from PubChem BioAssay (NCI).
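Where inhibition never reached the appropriate level, the endpoint shown equals the highest concentration tested. Otherwise, values were interpolated linearly from a five-concentration, 48-hour dose response in 96-well plates. TGI marks complete inhibition of growth.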

What was measured:
Test in all cases: growth of human tumour cells (NCI), 48 h
MDA-MB-231 breast = tested on: MDA-MB-231 breast
SF-268 CNS = tested on: SF-268 CNS
LOX IMVI melanoma = tested on: LOX IMVI melanoma
UACC-257 melanoma = tested on: UACC-257 melanoma
SR leukemia = tested on: SR leukemia
HCC-2998 colon = tested on: HCC-2998 colon
NCI-H226 lung = tested on: NCI-H226 lung
PC-3 prostate = tested on: PC-3 prostate
A498 renal = tested on: A498 renal
U251 CNS = tested on: U251 CNS
HCT-15 colon = tested on: HCT-15 colon
KM12 colon = tested on: KM12 colon
MDA-N = tested on: MDA-N
EKVX NSCLC = tested on: EKVX NSCLC
COLO 205 colon = tested on: COLO 205 colon
OVCAR-5 ovarian = tested on: OVCAR-5 ovarian
CAKI-1 renal = tested on: CAKI-1 renal
T-47D breast = tested on: T-47D breast
OVCAR-8 ovarian = tested on: OVCAR-8 ovarian
RPMI-8226 leukemia = tested on: RPMI-8226 leukemia
SF-539 CNS = tested on: SF-539 CNS
A549 NSCLC = tested on: A549 NSCLC
786-0 renal = tested on: 786-0 renal
CCRF-CEM leukemia = tested on: CCRF-CEM leukemia
HT29 colon = tested on: HT29 colon
RXF 393 renal = tested on: RXF 393 renal
SNB-19 CNS = tested on: SNB-19 CNS
MOLT-4 leukemia = tested on: MOLT-4 leukemia
NCI-H460 lung = tested on: NCI-H460 lung
DU-145 prostate = tested on: DU-145 prostate
HS 578T breast = tested on: HS 578T breast
UACC-62 melanoma = tested on: UACC-62 melanoma
HCT-116 colon = tested on: HCT-116 colon
OVCAR-4 ovarian = tested on: OVCAR-4 ovarian
NCI/ADR-RES ovarian = tested on: NCI/ADR-RES ovarian
SK-OV-3 ovarian = tested on: SK-OV-3 ovarian
SK-MEL-2 melanoma = tested on: SK-MEL-2 melanoma
SF-295 CNS = tested on: SF-295 CNS
MCF7 breast = tested on: MCF7 breast
HOP-62 NSCLC = tested on: HOP-62 NSCLC
MALME-3M melanoma = tested on: MALME-3M melanoma
TK-10 renal = tested on: TK-10 renal
MDA-MB-435 = tested on: MDA-MB-435
NCI-H23 lung = tested on: NCI-H23 lung
SN12C renal = tested on: SN12C renal
NCI-H522 lung = tested on: NCI-H522 lung
M14 melanoma = tested on: M14 melanoma
UO-31 renal = tested on: UO-31 renal
HL-60(TB) leukemia = tested on: HL-60(TB) leukemia
BT-549 breast = tested on: BT-549 breast
K-562 leukemia = tested on: K-562 leukemia
SK-MEL-5 melanoma = tested on: SK-MEL-5 melanoma
IGROV1 ovarian = tested on: IGROV1 ovarian
HOP-92 NSCLC = tested on: HOP-92 NSCLC
SK-MEL-28 melanoma = tested on: SK-MEL-28 melanoma
OVCAR-3 ovarian = tested on: OVCAR-3 ovarian

`CC(C)(C)C(=O)CC1(O)C=C(O)C(O)(CC(=O)C(C)(C)C)O1` (stereo unspecified) was tested, and the TGI (MDA-MB-231 breast) was > 100 µM, the TGI (SF-268 CNS) was > 100 µM and the TGI (LOX IMVI melanoma) was > 100 µM. For the same molecule, the TGI (UACC-257 melanoma) was > 100 µM, the TGI (SR leukemia) was > 100 µM and the TGI (HCC-2998 colon) was > 100 µM. For the same molecule, the TGI (NCI-H226 lung) was 56.6 µM, the TGI (PC-3 prostate) was > 100 µM and the TGI (A498 renal) was > 100 µM. For the same molecule, the TGI (U251 CNS) was > 100 µM, the TGI (HCT-15 colon) was > 100 µM and the TGI (KM12 colon) was > 100 µM. The TGI (MDA-N) was > 100 µM, the TGI (EKVX NSCLC) was > 100 µM and the TGI (COLO 205 colon) was > 100 µM. For the same molecule, the TGI (OVCAR-5 ovarian) was > 100 µM, the TGI (CAKI-1 renal) was 67.6 µM and the TGI (T-47D breast) was > 100 µM. The TGI (OVCAR-8 ovarian) was > 100 µM, the TGI (RPMI-8226 leukemia) was 69.7 µM and the TGI (SF-539 CNS) was 90.2 µM. The TGI (A549 NSCLC) was > 100 µM, the TGI (786-0 renal) was 34.5 µM and the TGI (CCRF-CEM leukemia) was > 100 µM. For the same molecule, the TGI (HT29 colon) was > 100 µM, the TGI (RXF 393 renal) was 45.1 µM and the TGI (SNB-19 CNS) was > 100 µM. The TGI (MOLT-4 leukemia) was > 100 µM, the TGI (NCI-H460 lung) was > 100 µM and the TGI (DU-145 prostate) was > 100 µM. For the same molecule, the TGI (HS 578T breast) was > 100 µM, the TGI (UACC-62 melanoma) was 97.1 µM and the TGI (HCT-116 colon) was 55.3 µM. The TGI (OVCAR-4 ovarian) was 64.1 µM, the TGI (NCI/ADR-RES ovarian) was > 100 µM and the TGI (SK-OV-3 ovarian) was > 100 µM. For the same molecule, the TGI (SK-MEL-2 melanoma) was > 100 µM, the TGI (SF-295 CNS) was > 100 µM and the TGI (MCF7 breast) was > 100 µM. The TGI (HOP-62 NSCLC) was 64.7 µM, the TGI (MALME-3M melanoma) was > 100 µM and the TGI (TK-10 renal) was > 100 µM. For the same molecule, the TGI (MDA-MB-435) was > 100 µM, the TGI (NCI-H23 lung) was 88.7 µM and the TGI (SN12C renal) was > 100 µM. For the same molecule, the TGI (NCI-H522 lung) was 80 µM, the TGI (M14 melanoma) was 51.1 µM and the TGI (UO-31 renal) was > 100 µM. For the same molecule, the TGI (HL-60(TB) leukemia) was 72.1 µM, the TGI (BT-549 breast) was > 100 µM and the TGI (K-562 leukemia) was > 100 µM. The TGI (SK-MEL-5 melanoma) was > 100 µM, the TGI (IGROV1 ovarian) was 55.2 µM and the TGI (HOP-92 NSCLC) was > 100 µM. The TGI (SK-MEL-28 melanoma) was > 100 µM and the TGI (OVCAR-3 ovarian) was > 100 µM.
